Experimental data: publication PMC9791066, “Investigations into the antibacterial effects and potential mechanism of gambogic acid and neogambogic acid” (Frontiers in Microbiology, 2022)
Converted amounts (≈) assume the structure as drawn. Read-outs that look alike come from different tables or passages of the source.

Key:
[1] = biological target: T1, EfaUPPS (K47A) (Enterococcus faecalis, UniProt Q831K9, K53A); test: UPPS inhibition assay, EfaUPPS K47A mutant; type: biochemical; conditions: K47A mutant compared with wild-type
T1 construct: His tag; made in house; host or cells: E. coli BL21(DE3)
Experimental: (§1) The EfaUPPS site-directed mutagenesis was generated using QuikChange site-directed mutagenesis kit (Agilent) according to the manufacturer’s instructions. The purification of site-directed mutation was using a similar strategy as described above.
(§2) The UPPS inhibition assay was carried out by measuring the fluorescence of the reaction mixture in a black 96-well microtiter plate (Corning, United States). […] After the indicated incubation period, the reaction was terminated by the addition of 10 μl of 0.5 M EDTA solution. Transferred 50 μl of the reaction mixture into a new 96-well microtiter plate, and quenched with an equal volume of Master Reaction Mix (Pyrophosphate Assay Kit, Sigma-Aldrich, USA) for 30 min. The UPPS inhibitory activity was performed by calculating the fluorescence percentage through determining the fluorescence absorbance of reaction mixture at 316 and 456 nm. Data of UPPS inhibitory activities were plotted versus compound concentrations on a semi-log scale using GraphPad Prism7. All the results were the means of at least three biological replicates.

[2] = biological target: T2, EfaUPPS (L91A) (Enterococcus faecalis, UniProt Q831K9, L97A); test: UPPS inhibition assay, EfaUPPS L91A mutant; type: biochemical; conditions: for effect of mutation on inhibitory effect of compound on EfaUPPS enzyme activity: L91A mutant compared with wild-type; for IC50 fold higher than that of the wild-type: L91A mutant vs wild-type (~3 μM)
T2 construct: His tag; made in house; host or cells: E. coli BL21(DE3)
Experimental: as §1, §2

[3] = biological target: T3, Enterococcus faecalis UPPS (EfaUPPS), wild-type (Enterococcus faecalis, UniProt Q831K9); test: UPPS inhibition assay (enzyme-coupled fluorescence), wild-type EfaUPPS; type: biochemical
T3 construct: His tag; made in house; host or cells: E. coli BL21(DE3)
Experimental: Enterococcus faecalis undecaprenyl pyrophosphate synthase (EfaUPPS) recombination studies were performed as previously described ([Li et al., 2020]). Briefly, the full-length gene sequence of EfaUPPS was cloned into the NdeI and HindIII sites of pET28a vector under control of T7 promoter. The sequenced plasmid was then transformed into E. coli strain BL21(DE3) (Invitrogen) and the transformants were grown on LB broth media supplemented with 50 μg/mL kanamycin. A single colony of the transformant was then cultured in 100 mL of LB broth containing 50 μg/mL kanamycin overnight. The overnight cultures were inoculated into 1 L of LB broth containing 50 μg/mL kanamycin and continue to culture until reaching an OD600 of 0.8. Upon reaching the optimal growth states, the cultures were induced by addition of 1 mM isopropyl-β-D-thiogalactoside (IPTG), and then cultured at 16°C for 16 h. […]
The UPPS inhibition assay was carried out by measuring the fluorescence of the reaction mixture in a black 96-well microtiter plate (Corning, United States). […] The UPPS inhibitory activity was performed by calculating the fluorescence percentage through determining the fluorescence absorbance of reaction mixture at 316 and 456 nm. […]

[4] = system: E. coli BAS849 transformed with pQE80L or pQE80L-EfaUPPS variants; test: Ex-vivo growth inhibition assay; type: cell-based, Escherichia coli; conditions: compound at 8 μg/mL
Experimental: The E. faecalis ATCC29212 undecaprenyl pyrophosphate synthase genes, and the L91A and L146A mutation fragments were cloned into the BamH I and Hind III digested pQE80Lvector, respectively. The resulting plasmids were transformed into E. coli BAS849, respectively. The strain transformed with the empty vector pQE80L was used as a negative control. A single colony of each transformant was inoculated into LB broth supplemented with 100 μg/mL ampicillin and incubated at 200 rpm, 37°C overnight. After diluted the cultures to 7 × 10^5 CFU/mL by LB broth, 5 μl of each diluted cultures were dripped onto a LB agar plate supplemented with IPTG (0.5 mM), and GA or NGA (8 μg/mL) followed by cultivation at 37°C overnight, and then imaged. In the meantime, another 5 μl of each diluted cultures were diluted in 100 ul LB and coated on the relevant plates to check for bacterial CFUs.

[5] = system: Staphylococcus aureus ATCC29213; test: MIC, microtiter broth dilution; type: cell-based; conditions: Staphylococcus aureus
Experimental: (§3) Antibacterial activities were performed by examining the minimal inhibitory concentrations (MICs), which was determined by a microtiter broth dilution method as previously described ([Cotsonas King and Wu, 2009]), with minor modifications. Briefly, 96-well plates (Corning) were inoculated with 100 μl of LB broth per well containing 7 × 10^5 CFU/mL bacteria, followed by adding 100 μl of LB broth containing two-fold serial dilutions of the test compounds. […] After 18 h of incubation, the MIC was determined to be the lowest concentration without visible bacterial growth. The results were the averages of at least three biological replicates.

[6] = system: Listeria monocytogenes ATCC19117; test: MIC, microtiter broth dilution; type: cell-based; conditions: Listeria monocytogenes
Experimental: as §3

[7] = system: Enterococcus faecalis ATCC29212; test: MIC, microtiter broth dilution; type: cell-based; conditions: Enterococcus faecalis
Experimental: as §3

[8] = system: clinical strains of S. aureus, E. faecalis, L. monocytogenes; test: MIC against clinical isolates; type: cell-based; conditions: 10 more clinical strains of each species
Description: Enterococcus faecalis ATCC29212 and Staphylococcus aureus ATCC29213 were purchased from the […]. Methicillin-resistant Staphylococcus aureus (MRSA), Listeria monocytogenes ATCC19117, Escherichia coli ATCC25922, Escherichia coli BAS849, DH5α and BL21 were from Lin lab storage. The clinical strains used in this study were isolated and identified from Affiliated Hospital of Nanjing University of Chinese Medicine and Nanjing Drum Tower Hospital, China. All the bacteria strains were routinely cultured in Luria-Bertani (LB) broth media (1% tryptone, 0.5% yeast extract, and 1% NaCl) at 37°C, except as noted.
Antibacterial activities were performed by examining the minimal inhibitory concentrations (MICs), which was determined by a microtiter broth dilution method as previously described ([Cotsonas King and Wu, 2009]), with minor modifications. Briefly, 96-well plates (Corning) were inoculated with 100 μl of LB broth per well containing 7 × 10^5 CFU/mL bacteria, followed by adding 100 μl of LB broth containing two-fold serial dilutions of the test compounds. Tetracycline (Tet) and ampicillin (Amp) and viridicatumtoxins were used as the positive controls. After 18 h of incubation, the MIC was determined to be the lowest concentration without visible bacterial growth. The results were the averages of at least three biological replicates.

[9] = overexpression of wild-type EfaUPPS

T1 sequence (Q831K9 whole entry K53A): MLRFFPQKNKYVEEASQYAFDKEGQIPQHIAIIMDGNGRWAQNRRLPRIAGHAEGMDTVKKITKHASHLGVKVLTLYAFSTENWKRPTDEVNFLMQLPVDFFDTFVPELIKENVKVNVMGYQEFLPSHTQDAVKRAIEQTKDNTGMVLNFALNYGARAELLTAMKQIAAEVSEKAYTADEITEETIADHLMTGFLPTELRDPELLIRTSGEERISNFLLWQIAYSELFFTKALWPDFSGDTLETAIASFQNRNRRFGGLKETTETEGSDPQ
T2 sequence (Q831K9 whole entry L97A): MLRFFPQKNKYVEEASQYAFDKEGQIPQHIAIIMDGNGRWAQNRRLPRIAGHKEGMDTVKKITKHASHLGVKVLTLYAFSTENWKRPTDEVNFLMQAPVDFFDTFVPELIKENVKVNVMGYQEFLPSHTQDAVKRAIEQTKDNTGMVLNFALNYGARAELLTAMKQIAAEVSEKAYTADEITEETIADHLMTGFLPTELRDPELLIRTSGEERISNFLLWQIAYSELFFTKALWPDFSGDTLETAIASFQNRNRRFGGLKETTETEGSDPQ
T3 sequence (Q831K9 whole entry): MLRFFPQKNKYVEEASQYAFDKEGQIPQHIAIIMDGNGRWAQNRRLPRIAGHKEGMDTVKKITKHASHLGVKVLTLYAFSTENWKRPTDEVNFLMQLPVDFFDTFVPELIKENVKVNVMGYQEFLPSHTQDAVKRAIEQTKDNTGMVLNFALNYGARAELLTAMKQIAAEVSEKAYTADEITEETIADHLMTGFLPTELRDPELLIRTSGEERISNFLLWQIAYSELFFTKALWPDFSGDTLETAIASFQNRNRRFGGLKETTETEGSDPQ

SMILES | IC50 values of K47A mutant (in words) [1] | effect of mutation on inhibitory effect of compound on EfaUPPS enzyme activity [1] | IC50 [2] [µM] | effect of mutation on inhibitory effect of compound on EfaUPPS enzyme activity [2] | IC50 fold higher than that of the wild-type [2] | IC50 ([3]; WT EfaUPPS, 35 μM IPP, 5 μM FPP, read-out: IC50) [µM] | growth of E. coli BAS849 ([4]; empty vector pQE80L) | growth of E. coli BAS849 [4, 9] | growth of E. coli BAS849 ([4]; pQE80L-EfaUPPS L91A) | growth of E. coli BAS849 ([4]; pQE80L-EfaUPPS L146A) | MIC ([5]; ATCC29213, LB broth, 18 h, read-out: MIC) [µg/mL] | MIC ([6]; ATCC19117, LB broth, 18 h, read-out: MIC) [µg/mL] | MIC ([7]; ATCC29212, LB broth, 18 h, read-out: MIC) [µg/mL] | growth inhibitory activity (MICs) against clinical strains [8] | IC50 [3] [µM] | MIC ([5]; ATCC29213, 18 h) [µg/mL] | MIC ([6]; ATCC19117, 18 h) [µg/mL] | MIC ([7]; ATCC29212, 18 h) [µg/mL]
CC(C)=CCC[C@]1(C)C=Cc2c(O)c3c(c(CC=C(C)C)c2O1)O[C@]12C(=C[C@@H]4C[C@H]1C(C)(C)O[C@@]2(C/C=C(/C)C(=O)O)C4=O)C3=O [GA, gambogic acid] | increased | no obvious difference | ~30 | significantly decreased | about 10 fold | 3.08 | completely inhibited | rescued the cell growth | moderate resistance | moderate resistance | 2 (≈ 3.18 µM) | 4 (≈ 6.36 µM) | 2 (≈ 3.18 µM) | high potency in growth inhibitory activity |  |  |  | 
CC(C)=CCC[C@]1(C)CC(O)c2c(O)c3c(c(CC=C(C)C)c2O1)O[C@]12C(=C[C@@H]4C[C@H]1C(C)(C)O[C@@]2(C/C=C(/C)C(=O)O)C4=O)C3=O (stereo partly drawn) [NGA, neogambogic acid] |  | significantly reduced | ~30 | significantly reduced | about 10 fold |  | completely inhibited | rescued the cell growth | moderate resistance | moderate resistance |  |  |  | high potency in growth inhibitory activity | 3.07 | 4 (≈ 6.18 µM) | 4 (≈ 6.18 µM) | 2 (≈ 3.09 µM)
